Measured values: USRE38425E1, “Semicarbazones having CNS activity and pharmaceutical preparations containing same” (University of Saskatchewan Technologies, Inc., priority 1995, dated 2004)
Several values for one entry are separate records, joined by “and”; a condition that tells them apart may be missing. Equal values may be shown once. Read-outs that look alike come from different tables or passages of the source.

Key:
kindled rat = kindled rat test (corneal kindled rat screen); assay type: in vivo, rats; conditions: for protection in the corneal kindled rat screen: in vivo; for ED50: Rattus norvegicus, read-out: ED50 (dose required to reduce seizures from stage 5 to stage 3 or less)
Text: Particularly preferred compounds according to the present invention are 4-(4′-fluorophenoxy)benzaldehyde semicarbazone and 4-(thiophenoxy)benzaldehyde semicarbazone. […] Incidentally, the kindled rat screen is described by R. J. Racine in “Modification of Seizure Activity by Electrical Stimulation. II. Motor Seizure”, Electroencephalogr.Clin.Neurophysiol., 1972, 32, 281-294, and by G. Skeen et al. In “Development of Kindled Seizures Following Electrical Stimulation via the Cornea”, Soc.Neurosci., 1990, 16(1), 307; the disclosures of which are incorporated herein by reference.
The kindled rat test was undertaken by reported procedures (as indicated above). Compound 4b was administered orally and the animals challenged with electrical stimuli 2h later. The ED50 is the dose required to reduce seizures from stage 5 to stage 3 or less and these stages are described as follows namely stage 1 is mouth and facial clonus, stage 2 is stage 1 plus head nodding, stage 3 is stage 2 plus forelimb clonus, stage 4 is stage 3 plus rearing and stage 5 is stage 4 plus repeated rearing and falling.

rats [1] = experiment: MES screen after oral administration to rats; conditions: for ED50: Rattus norvegicus, po
Procedure: The majority of the compounds were examined for oral activity in rats. Initially doses of 50 mg/kg of the semicarbazones were administered.
Evaluation of most of the semicarbazones and analogs in the MES and neurotoxicity tests after oral administration to rats was performed.

rats [2] = experiment: neurotoxicity screen after oral administration to rats; conditions: oral administration to rats; time t (h) per compound as in the table
Procedure: (§1) Initially doses of 50 mg/kg of the semicarbazones were administered.

mice [3] = system: mice
mice [4] = conditions: intraperitoneal injection in mice; time t (h) per compound as in the table
Procedure: An initial anticonvulsant evaluation of the compounds prepared according to Example 1 was undertaken by administering the compounds by the intraperitoneal route to mice. Protection and/or neurotoxicity was noted 0.5 and 4 hours after administering doses of 30, 100 and 300 mg/kg of each semicarbazone to the animals.
Doses of 30, 100 and 300 mg/kg were injected by the intraperitoneal route into mice and evaluated in the MES, scPTZ and neurotoxicity screens one half and four hours after administration.

mice [5] = experiment: MES screen after intraperitoneal injection in mice; assay type: in vivo; conditions: time t (h) per compound as in the table; for ED50: Mus musculus, ip
rats [6] = experiment: scPTZ screen after oral administration to rats
Procedure: as §1

epileptic chicken = epileptic chicken model (intermittent photic stimulation); assay type: in vivo; conditions: convulsions induced by intermittent photic stimulation
Text: Two series of compounds were examined with the aim of observing whether oxygen or sulfur is a preferable spacer atom between the two aryl rings and also to compare the ED50 figures with those obtained in the rat oral and mouse intraperitoneal screens.

in vivo = conditions: rat, po
Procedure: as §1

rats [7] = conditions: rat, in vivo, po
Procedure: as §1

[8] = read-out: MES screen ED50 (mg/kg)
[9] = intraperitoneal injection in mice, read-out: MES screen ED50
[10] = doses indicated in Table 1, after 0.5 h
[11] = doses indicated in Table 1, after 1 h
[12] = doses indicated in Table 1, after 4 h
[13] = oral administration to rats, dose 50 mg/kg, 0.25 h
[14] = oral administration to rats, dose 50 mg/kg, 0.5 h
[15] = oral administration to rats, dose 50 mg/kg, 1 h
[16] = oral administration to rats, dose 50 mg/kg, 2 h
[17] = oral administration to rats, dose 50 mg/kg, 4 h
[18] = doses indicated in Table 1, after 2 h
[19] = oral administration to rats, dose 12.5 mg/kg, 0.5 h
[20] = oral administration to rats, dose 12.5 mg/kg, 1 h
[21] = oral administration to rats, dose 12.5 mg/kg, 2 h
[22] = oral administration to rats, dose 12.5 mg/kg, 4 h
[23] = oral administration to rats, time t (h) per compound as in the table
[24] = intraperitoneal injection in mice, time t (h) per compound as in the table
[25] = intraperitoneal injection in mice
[26] = oral administration to rats, dose 12.5 mg/kg, 0.25 h

NC(=O)NN=Cc1ccc(Oc2ccc(F)cc2)cc1 [4-(4′-fluorophenoxy)benzaldehyde semicarbazone]
protection in the corneal kindled rat screen (kindled rat): afford protection

NC(=O)NN=Cc1ccc(Sc2ccccc2)cc1 [4-(thiophenoxy)benzaldehyde semicarbazone]
protection in the corneal kindled rat screen (kindled rat): afford protection

NC(=O)N1c2ccccc2C=Cc2ccccc21 [Carbamazepine, reference compound]
ED50 (rats [1]; [8]): 3.57 mg/kg | neurotoxicity screen TD50 (rats [2]): 361 mg/kg | toxicity screen 0.5 h: minimum dose whereby bioactivity was demonstrated in half or more of the mice (mice [3]; mouse, in vivo, 0.5 h): 100 mg/kg | toxicity screen: minimum dose whereby bioactivity was demonstrated in half or more of the mice (mice [3]; mouse, in vivo, 0.5 h): 100 mg/kg | toxicity screen 4 h: minimum dose whereby bioactivity was demonstrated in half or more of the mice (mice [3]; mouse, in vivo, 4 h): 300 mg/kg | toxicity screen: minimum dose whereby bioactivity was demonstrated in half or more of the mice (mice [3]; mouse, in vivo, 4 h): 300 mg/kg | neurotoxicity screen TD50 (mice [3]; mouse, in vivo, ip): 47.8 mg/kg | acPTZ screen ED50 (mice [4]): >50 mg/kg | ED50 (mice [5]; [9]): 9.85 mg/kg | ED50 (kindled rat): 28.9 mg/kg

NC(=O)NN=Cc1ccc(Oc2ccc(I)cc2)cc1 [Compound 4e]
number of rats protected in the scPTZ screen (rats [6]; [10]): 1/4 | number of rats protected in the scPTZ screen (rats [6]; [11]): 1/4 | number of rats protected in the scPTZ screen (rats [6]; [12]): 1/4 | MES screen 0.25 h: number of rats out of 4 which were protected (rats [1]; [13]): 3 | MES screen 0.5 h: number of rats out of 4 which were protected (rats [1]; [14]): 4 | MES screen 1 h: number of rats out of 4 which were protected (rats [1]; [15]): 4 | MES screen 2 h: number of rats out of 4 which were protected (rats [1]; [16]): 4 | MES screen 4 h: number of rats out of 4 which were protected (rats [1]; [17]): 4

Cc1ccccc1Oc1ccc(C=NNC(N)=O)cc1 [Compound 5n]
number of rats protected in the scPTZ screen (rats [6]; [10]): 1/4 | number of rats protected in the scPTZ screen (rats [6]; [11]): 1/4 | number of rats protected in the scPTZ screen (rats [6]; [18]): 1/4 | MES screen 0.5 h: number of rats out of 4 which were protected (rats [1]; [19]): 4 | MES screen 1 h: number of rats out of 4 which were protected (rats [1]; [20]): 3 | MES screen 2 h: number of rats out of 4 which were protected (rats [1]; [21]): 4 | MES screen 4 h: number of rats out of 4 which were protected (rats [1]; [22]): 4 | MES screen ED50 (rats [1]; [23]): 5.65 mg/kg | neurotoxicity screen TD50 (rats [2]): >500 mg/kg

CCCCc1ccc(Oc2ccc(C=NNC(N)=O)cc2)cc1 [Compound 5r]
number of rats protected in the scPTZ screen (rats [6]; [11]): 1/4 | number of rats protected in the scPTZ screen (rats [6]; [18]): 2/4 | number of rats protected in the scPTZ screen (rats [6]; [12]): 1/4 | MES screen 0.5 h: number of rats out of 4 which were protected (rats [1]; [19]): 2 | MES screen 1 h: number of rats out of 4 which were protected (rats [1]; [20]): 2 | MES screen 2 h: number of rats out of 4 which were protected (rats [1]; [21]): 3 | MES screen 4 h: number of rats out of 4 which were protected (rats [1]; [22]): 4 | MES screen ED50 (rats [1]; [23]): 3.21 mg/kg | neurotoxicity screen TD50 (rats [2]): >3.22 mg/kg | neurotoxicity screen TD50 (mice [3]; [24]): 131.27 mg/kg | acPTZ screen ED50 (mice [4]): 86.93 mg/kg | MES screen ED50 (mice [5]; [25]): 13.36 mg/kg

NC(=O)NN=Cc1ccc(Sc2ccccc2)cc1 [Compound 15a]
MES screen: number of rats out of 4 which were protected (rats [1]; [14]): 4 | MES screen: number of rats out of 4 which were protected (rats [1]; [15]): 4 | MES screen: number of rats out of 4 which were protected (rats [1]; [16]): 4 | MES screen: number of rats out of 4 which were protected (rats [1]; [17]): 4 | neurotoxicity screen TD50 (rats [2]): >496 mg/kg | neurotoxicity screen TD50 (mice [3]; [24]): 181.00 mg/kg | acPTZ screen ED50 (mice [4]): >46 mg/kg | MES screen ED50 (mice [5]; [25]): 15.62 mg/kg | ED50 in the epileptic chicken model (epileptic chicken): 2.5 mg/kg

NC(=O)NN=Cc1ccc(Sc2ccc(F)cc2)cc1 [Compound 16a]
MES screen: number of rats out of 4 which were protected (rats [1]; [26]): 1 | MES screen: number of rats out of 4 which were protected (rats [1]; [19]): 3 | MES screen: number of rats out of 4 which were protected (rats [1]; [20]): 4 | MES screen: number of rats out of 4 which were protected (rats [1]; [21]): 4 | MES screen: number of rats out of 4 which were protected (rats [1]; [22]): 4 | neurotoxicity screen TD50 (rats [2]): 183.05 mg/kg | neurotoxicity screen TD50 (mice [3]; [24]): 88.00 mg/kg | acPTZ screen ED50 (mice [4]): >120 mg/kg | MES screen ED50 (mice [5]; [25]): 12.37 mg/kg | ED50 in the epileptic chicken model (epileptic chicken): 1.5 mg/kg

NC(=O)NN=Cc1ccc(Sc2ccc(Cl)cc2)cc1 [Compound 16b]
MES screen: number of rats out of 4 which were protected (rats [1]; [13]): 1 | MES screen: number of rats out of 4 which were protected (rats [1]; [14]): 4 | MES screen: number of rats out of 4 which were protected (rats [1]; [15]): 4 | MES screen: number of rats out of 4 which were protected (rats [1]; [16]): 4 | MES screen: number of rats out of 4 which were protected (rats [1]; [17]): 4 | neurotoxicity screen TD50 (mice [3]; [24]): 53.18 mg/kg | acPTZ screen ED50 (mice [4]): >120 mg/kg | MES screen ED50 (mice [5]; [25]): 16.22 mg/kg | ED50 in the epileptic chicken model (epileptic chicken): 1.0 mg/kg

NC(=O)NN=Cc1ccc(Sc2ccc(Br)cc2)cc1 [Compound 16c]
MES screen: number of rats out of 4 which were protected (rats [1]; [26]): 0 | MES screen: number of rats out of 4 which were protected (rats [1]; [19]): 1 | MES screen: number of rats out of 4 which were protected (rats [1]; [20]): 3 | MES screen: number of rats out of 4 which were protected (rats [1]; [21]): 4 | MES screen: number of rats out of 4 which were protected (rats [1]; [22]): 4 | neurotoxicity screen TD50 (mice [3]; [24]): 122.57 mg/kg | acPTZ screen ED50 (mice [4]): >200 mg/kg | MES screen ED50 (mice [5]; [25]): 24.37 mg/kg | ED50 in the epileptic chicken model (epileptic chicken): 1.5 mg/kg

O=C1NC(=O)C(c2ccccc2)(c2ccccc2)N1 [Phenytoin, reference compound]
ED50 (rats [1]; [8]): 23.2 mg/kg | neurotoxicity screen TD50 (mice [3]; [24]): 41.23 mg/kg and 42.8 mg/kg | toxicity screen 0.5 h: minimum dose whereby bioactivity was demonstrated in half or more of the mice (mice [3]; mouse, in vivo, 0.5 h): 100 mg/kg | toxicity screen: minimum dose whereby bioactivity was demonstrated in half or more of the mice (mice [3]; mouse, in vivo, 0.5 h): 100 mg/kg | toxicity screen 4 h: minimum dose whereby bioactivity was demonstrated in half or more of the mice (mice [3]; mouse, in vivo, 4 h): 100 mg/kg | toxicity screen: minimum dose whereby bioactivity was demonstrated in half or more of the mice (mice [3]; mouse, in vivo, 4 h): 100 mg/kg | acPTZ screen ED50 (mice [4]): >50 mg/kg | ED50 (mice [5]; [9]): 6.32 mg/kg | MES screen ED50 (mice [5]; [25]): 6.48 mg/kg | ED50 (kindled rat): > 100 mg/kg | TD50 (in vivo): > 500 mg/kg

CCCC(CCC)C(=O)O [Valproic acid, reference compound]
neurotoxicity screen TD50 (rats [7]): 859 mg/kg | ED50 (rats [1]; read-out: MES screen ED50 (mg/kg), oral administration to rats, time t (h) per compound as in the table): 395 mg/kg | acPTZ screen ED50 (mice [4]): 209 mg/kg | ED50 (mice [5]; read-out: MES screen ED50 (mg/kg), intraperitoneal injection in mice): 287 mg/kg | ED50 (kindled rat): 117 mg/kg
